Holding throughout (type): physicochemical
A short description of series [1]: Evaluation of liquid crystallinity (hot stage, polarization microscope). Set-up: key: A case of having liquid crystallinity was evaluated as A; a case of having no liquid crystallinity was evaluated as B. The settings on record: heated on a hot stage, observed with a polarization microscope. On the procedure: The respective compounds (the compounds A-1 to A-6 and the compounds B-1 and B-2) were heated on a hot stage and observed with a polarization microscope, and the phase transition temperature was measured to evaluate the presence or absence of the liquid crystallinity. A case of having liquid crystallinity was evaluated as A, and a case of having no liquid crystallinity was evaluated as B. The results are shown in Table 1.
Since B-1 has melting points of 200° C. or higher and undergo a polymerization reaction during heating, liquid crystallinity could not be evaluated.

Series [2] can be described thus: Measurement of Δn (refractive index anisotropy), wedge-shaped liquid crystal cell. The following applies: wavelength 550 nm, 30° C. or lower limit temperature of nematic phase+0° C. to 10° C.; extrapolated from 1/2 mixture with L-1-1 where needed. The method, then: The Δn of each of the compounds (the compounds A-1 to A-6 and the compounds B-1 and B-2), which are the compounds to be measured, was measured by a method using a wedge-shaped liquid crystal cell described on page 202 in the Liquid crystal handbook (edited by the liquid crystal handbook editorial board, published by Maruzen Co., Ltd., 2000). Δn was defined as a measured value at a wavelength of 550 nm at 30° C. or the lower limit temperature of the nematic phase+0° C. to 10° C. In a case of a compound which is liable to crystallize or a compound having no liquid crystallinity, evaluation was carried out using a mixture thereof with the other liquid crystal compound, and Δn was estimated from the extrapolated value of the measured value thereof.
The following L-1-1 was used as the other liquid crystal compound. As the above mixture, a mixture obtained by mixing at a ratio of the compound to be measured/the L-1-1=1/2 (in terms of mass ratio) was used.
A case where Δn was 0.35 or more was evaluated as A, a case where Δn was 0.30 or more and less than 0.35 was evaluated as B, and a case where Δn was less than 0.30 was evaluated as C.

Series [3] is described as follows: Evaluation of solubility in methyl ethyl ketone. The settings on record: precipitation concentration in methyl ethyl ketone at room temperature (25° C.). The method, then:
The solubility of each of the compounds (the compounds A-1 to A-6 and the compounds B-1 and B-2) in methyl ethyl ketone was evaluated.

Series [4] in a line: Light resistance evaluation of optically anisotropic layer (Super Xenon Weather Meter). The settings on record: rate of change in Re (550 nm) of layer with 25 parts compound/75 parts L-1; 5 million lx, 50 hours, 63° C., 50% RH, oxygen-blocking. The method, then: As shown below, the light resistance of the optically anisotropic layer produced using the composition containing each of the compounds A-1 to A-6 and the compounds B-1 and B-2 was evaluated.
A coating liquid having the following composition was prepared and applied by spin-coating, onto a rubbing-treated glass attached with an alignment film. Each composition was irradiated with ultraviolet rays of 300 mJ/cm^2 through a filter that cuts light having a wavelength of 350 nm or less on a hot plate which had been heated to a temperature at which a nematic phase is shown, whereby an optically anisotropic layer was produced.
The polymerizable liquid crystal compound L-1 is a mixture obtained by mixing at a ratio of the following L-1-1/L-1-2/L-1-3=84/14/2 (in terms of mass ratio).
The produced optically anisotropic layers for a light resistance test were irradiated with light using a Super Xenon Weather Meter SX75 manufactured by Suga Test Instruments Co., Ltd. Using KU-1000100 manufactured by King Seisakusho Co., Ltd. as a UV cut filter, a light resistance test was carried out by irradiation with 5 million lx of light for 50 hours under an oxygen-blocking condition. The temperature of the specimen to be tested (the temperature inside the test device) was set to 63° C. The relative humidity in the test device was 50% RH.
The Re of the optically anisotropic layer before and after the light resistance test was measured, the light resistance in a case where the rate of change in Re described below was less than 10% was evaluated as A, and the light resistance in a case where the rate of change in Re was 10% or more was evaluated as B. The smaller the rate of change in Re, the more excellent the light resistance.
Rate of change in Re (%)=[100×{|(Re after test)−(Re before test)|}/(Re before test)]
Re was measured with Axoscan manufactured by Axometrics Inc. at a wavelength of 550 nm, and the measurement temperature was set to room temperature.

Structures are written as SMILES.

The source of these data is patent publication US20240142676A1, “COMPOUND, COMPOSITION, CURED PRODUCT, OPTICALLY ANISOTROPIC BODY, OPTICAL ELEMENT, AND LIGHT GUIDE ELEMENT” (FUJIFILM Corporation, priority 2021, published 2024).

For `C=CC(=O)OCCc1ccc(C#Cc2cnc(-c3ncc(C#Cc4ccc(CCOC(=O)C=C)cc4)cc3C)c(C)c2)cc1` [Compound A-6], in series [1], the Liquid crystallinity entry is on record as “A”. Besides, the Δn entry in series [2] was “B (a case where Δn was 0.30 or more and less than 0.35 was evaluated as B)”. For the same compound, the Solubility result in series [3] was “A (the solubility in a case where the precipitation concentration was 10% by mass or more was evaluated as A)”. For the same compound, in series [4], the Light resistance entry is “A (the light resistance in a case where the rate of change in Re described below was less than 10% was evaluated as A)”.

With `C=CC(=O)OCCSc1ccc(C#Cc2ccc(-c3ccc(C#Cc4ccc(SCCOC(=O)C=C)cc4)cc3C)c(C)c2)cc1` [Compound A-2], in series [1], the Liquid crystallinity result was “A”. In addition, the Δn result in series [2] is “A (A case where Δn was 0.35 or more was evaluated as A)”. Also, the Solubility result in series [3] is recorded as “A (the solubility in a case where the precipitation concentration was 10% by mass or more was evaluated as A)”. The Light resistance entry in series [4] was “A (the light resistance in a case where the rate of change in Re described below was less than 10% was evaluated as A)”.

As for `C=CC(=O)OCCCCOc1ccc(C#Cc2ccc(-c3ccc(C#Cc4ccc(OCCCCOC(=O)C=C)cc4)cc3C)c(C)c2)cc1` [Compound A-3], the Liquid crystallinity result in series [1] was “A”. Also, the Δn entry in series [2] was “B (a case where Δn was 0.30 or more and less than 0.35 was evaluated as B)”. In addition, the Solubility entry in series [3] was “A (the solubility in a case where the precipitation concentration was 10% by mass or more was evaluated as A)”. Further, the Light resistance result in series [4] is “A (the light resistance in a case where the rate of change in Re described below was less than 10% was evaluated as A)”.

With `C=CC(=O)OCCc1ccc(C#Cc2ccc(-c3ccc(C#Cc4ccc(CCOC(=O)C=C)cc4)cc3C)c(C)c2)cc1` [Compound A-1], the Liquid crystallinity entry in series [1] was “A”. The Δn entry in series [2] was “B (a case where Δn was 0.30 or more and less than 0.35 was evaluated as B)”. In addition, the Solubility entry in series [3] is on record as “A (the solubility in a case where the precipitation concentration was 10% by mass or more was evaluated as A)”. In addition, the Light resistance result in series [4] is listed as “A (the light resistance in a case where the rate of change in Re described below was less than 10% was evaluated as A)”.
